What was measured:
Conditions in all cases: compound at 10 μM
[1] = target: T1, Human melanin-concentrating hormone (MCH1) (Homo sapiens, UniProt Q99705); assay: Radioligand binding, human melanin-concentrating hormone MCH1 membranes, FlashPlate, [125I]-S36057
T1 construct: purchased Perkin Elmer Biosignal
Method in brief: (§1)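 Cloned human receptor membranes were coated onto FlashPlate wells and incubated with radioligand and compound (added from a 0.5 mM DMSO daughter plate) for 1 hour at room temperature in the dark. Scintillation counting gave percent inhibition, with DMSO defining total and reference ligand defining non-specific binding.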

[2] = target: T2, Human neurokinin (NK1) (Homo sapiens, UniProt P25103); assay: Radioligand binding, human neurokinin NK1 membranes, filtration, [125I]-Substance P
T2 construct: purchased Perkin Elmer Biosignal
T2 sequence (P25103 whole entry): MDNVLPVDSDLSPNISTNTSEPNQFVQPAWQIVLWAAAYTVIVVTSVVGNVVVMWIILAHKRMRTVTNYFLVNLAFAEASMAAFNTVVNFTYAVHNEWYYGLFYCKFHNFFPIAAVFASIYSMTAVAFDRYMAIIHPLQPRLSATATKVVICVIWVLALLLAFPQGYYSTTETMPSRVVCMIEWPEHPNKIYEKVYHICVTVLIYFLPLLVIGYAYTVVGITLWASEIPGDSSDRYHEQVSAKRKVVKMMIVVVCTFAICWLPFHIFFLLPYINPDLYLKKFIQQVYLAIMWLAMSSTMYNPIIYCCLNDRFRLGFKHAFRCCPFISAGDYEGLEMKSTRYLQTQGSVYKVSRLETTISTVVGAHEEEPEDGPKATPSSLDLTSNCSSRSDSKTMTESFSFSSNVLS
Method in brief: (§2)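 Membranes from cloned human receptors were incubated with compound and radioligand for 1 hour at room temperature. Bound ligand was collected on 0.3% PEI-soaked filters, washed with cold 50 mM Tris-HCl pH 7.4, and counted by scintillation. Percent inhibition was computed against DMSO totals and reference-ligand nonspecific wells.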

[3] = target: T3, Human melanocortin (MC5) (Homo sapiens, UniProt P33032); assay: Radioligand binding, human melanocortin MC5 membranes, FlashPlate, [125I]-NDP-αMSH
T3 construct: purchased Perkin Elmer Biosignal
T3 sequence (P33032 whole entry): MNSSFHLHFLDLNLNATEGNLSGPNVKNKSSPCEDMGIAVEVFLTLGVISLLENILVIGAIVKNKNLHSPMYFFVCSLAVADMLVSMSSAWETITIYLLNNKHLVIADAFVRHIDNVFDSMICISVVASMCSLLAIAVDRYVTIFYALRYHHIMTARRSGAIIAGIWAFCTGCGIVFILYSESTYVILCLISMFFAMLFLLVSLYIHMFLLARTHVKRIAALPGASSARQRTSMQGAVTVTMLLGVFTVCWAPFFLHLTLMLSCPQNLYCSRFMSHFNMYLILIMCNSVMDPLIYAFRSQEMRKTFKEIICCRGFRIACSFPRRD
Method in brief: as §1

[4] = target: T4, Human Melanocortin (MC3) (Homo sapiens, UniProt P41968); assay: Radioligand binding, human melanocortin MC3 membranes, FlashPlate, [125I]-NDP-αMSH
T4 construct: purchased Perkin Elmer Biosignal
T4 sequence (P41968 whole entry): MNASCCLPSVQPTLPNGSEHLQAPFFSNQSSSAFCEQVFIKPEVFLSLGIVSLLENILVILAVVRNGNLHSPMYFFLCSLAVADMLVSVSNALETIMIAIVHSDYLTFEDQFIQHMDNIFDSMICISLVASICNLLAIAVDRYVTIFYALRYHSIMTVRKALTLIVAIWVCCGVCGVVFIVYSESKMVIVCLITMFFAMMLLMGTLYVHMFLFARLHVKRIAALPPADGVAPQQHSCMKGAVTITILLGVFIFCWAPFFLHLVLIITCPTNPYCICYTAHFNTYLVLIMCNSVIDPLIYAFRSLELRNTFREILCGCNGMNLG
Method in brief: as §1

[5] = target: T5, Human opioid (ORL1) (Homo sapiens, UniProt P41146); assay: Radioligand binding, human opioid ORL1 membranes, FlashPlate, [125I]-Nociceptin
T5 construct: purchased Perkin Elmer Biosignal
T5 sequence (P41146 whole entry): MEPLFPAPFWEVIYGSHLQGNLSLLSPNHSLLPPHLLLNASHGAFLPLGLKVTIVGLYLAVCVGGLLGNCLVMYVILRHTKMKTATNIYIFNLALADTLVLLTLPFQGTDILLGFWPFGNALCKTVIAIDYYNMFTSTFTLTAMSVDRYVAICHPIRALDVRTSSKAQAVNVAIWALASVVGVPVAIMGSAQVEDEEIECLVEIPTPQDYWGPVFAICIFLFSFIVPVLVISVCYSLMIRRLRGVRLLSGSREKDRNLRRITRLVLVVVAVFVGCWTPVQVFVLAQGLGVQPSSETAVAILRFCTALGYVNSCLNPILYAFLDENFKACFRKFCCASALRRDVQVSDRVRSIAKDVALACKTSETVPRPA
Method in brief: as §1

[6] = target: T6, Human κ-Opioid (KOP) (Homo sapiens, UniProt P41145); assay: Radioligand binding, human κ-opioid (KOP) membranes, filtration, [3H]-Diprenorphine
T6 construct: purchased Perkin Elmer Biosignal
T6 sequence (P41145 whole entry): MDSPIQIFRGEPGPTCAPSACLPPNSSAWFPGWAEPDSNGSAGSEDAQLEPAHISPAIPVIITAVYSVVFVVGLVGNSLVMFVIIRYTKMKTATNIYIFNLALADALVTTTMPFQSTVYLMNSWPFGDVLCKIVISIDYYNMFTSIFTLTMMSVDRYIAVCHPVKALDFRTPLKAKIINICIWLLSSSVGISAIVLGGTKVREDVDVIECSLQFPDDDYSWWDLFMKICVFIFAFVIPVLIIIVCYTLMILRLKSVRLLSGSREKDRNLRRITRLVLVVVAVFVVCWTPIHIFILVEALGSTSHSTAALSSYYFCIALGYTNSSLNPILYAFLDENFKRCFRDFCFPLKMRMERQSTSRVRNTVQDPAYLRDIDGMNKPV
Method in brief: as §2

[7] = target: T7, Human neuropeptide Y (NPY-Y1) (Homo sapiens, UniProt P25929); assay: Radioligand binding, human neuropeptide Y NPY-Y1 membranes, FlashPlate, [125I]-PYY
T7 construct: purchased Perkin Elmer Biosignal
T7 sequence (P25929 1-384): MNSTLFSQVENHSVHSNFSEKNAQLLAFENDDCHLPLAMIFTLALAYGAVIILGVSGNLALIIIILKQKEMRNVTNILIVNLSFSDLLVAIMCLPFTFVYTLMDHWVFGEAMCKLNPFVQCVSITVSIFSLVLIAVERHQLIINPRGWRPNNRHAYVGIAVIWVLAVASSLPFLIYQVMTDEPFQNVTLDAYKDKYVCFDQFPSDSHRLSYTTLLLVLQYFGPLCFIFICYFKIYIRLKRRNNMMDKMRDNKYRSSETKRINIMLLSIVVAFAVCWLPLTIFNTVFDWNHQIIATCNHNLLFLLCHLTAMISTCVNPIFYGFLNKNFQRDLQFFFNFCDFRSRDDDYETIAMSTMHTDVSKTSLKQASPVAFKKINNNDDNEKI
Method in brief: as §1

[8] = target: T8, Human δ-opioid (DOP) (Homo sapiens, UniProt P41143); assay: Radioligand binding, human δ-opioid (DOP) membranes, FlashPlate, [3H]-Bremazocine
T8 construct: purchased Perkin Elmer Biosignal
T8 sequence (P41143 whole entry): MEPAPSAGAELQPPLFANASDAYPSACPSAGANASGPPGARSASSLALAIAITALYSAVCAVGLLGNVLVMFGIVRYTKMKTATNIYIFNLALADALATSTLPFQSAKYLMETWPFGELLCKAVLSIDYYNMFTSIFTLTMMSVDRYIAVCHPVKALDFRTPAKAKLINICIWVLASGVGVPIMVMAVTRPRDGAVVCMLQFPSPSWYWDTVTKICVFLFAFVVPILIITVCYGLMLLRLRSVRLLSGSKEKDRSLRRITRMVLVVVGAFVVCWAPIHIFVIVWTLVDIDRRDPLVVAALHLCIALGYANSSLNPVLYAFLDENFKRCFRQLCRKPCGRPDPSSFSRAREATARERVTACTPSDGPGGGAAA
Method in brief: as §1

[9] = target: T9, Human Melanocortin (MC4) (Homo sapiens, UniProt P32245); assay: Radioligand binding, human melanocortin MC4 membranes, FlashPlate, [125I]-NDP-αMSH
T9 construct: purchased Perkin Elmer Biosignal
T9 sequence (P32245 whole entry): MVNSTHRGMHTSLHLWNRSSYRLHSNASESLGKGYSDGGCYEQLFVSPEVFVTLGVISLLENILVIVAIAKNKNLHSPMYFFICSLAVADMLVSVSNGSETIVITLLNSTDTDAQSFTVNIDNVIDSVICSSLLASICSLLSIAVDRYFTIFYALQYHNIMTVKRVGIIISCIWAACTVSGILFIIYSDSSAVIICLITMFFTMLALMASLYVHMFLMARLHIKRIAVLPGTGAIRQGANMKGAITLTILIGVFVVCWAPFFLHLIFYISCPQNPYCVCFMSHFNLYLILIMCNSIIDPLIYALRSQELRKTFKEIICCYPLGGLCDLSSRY
Method in brief: as §1

[10] = target: T10, Human μ-opioid (MOP) (Homo sapiens, UniProt P35372); assay: Radioligand binding, human μ-opioid (MOP) membranes, FlashPlate, [3H]-Naloxone
T10 construct: purchased Perkin Elmer Biosignal
T10 sequence (P35372 whole entry): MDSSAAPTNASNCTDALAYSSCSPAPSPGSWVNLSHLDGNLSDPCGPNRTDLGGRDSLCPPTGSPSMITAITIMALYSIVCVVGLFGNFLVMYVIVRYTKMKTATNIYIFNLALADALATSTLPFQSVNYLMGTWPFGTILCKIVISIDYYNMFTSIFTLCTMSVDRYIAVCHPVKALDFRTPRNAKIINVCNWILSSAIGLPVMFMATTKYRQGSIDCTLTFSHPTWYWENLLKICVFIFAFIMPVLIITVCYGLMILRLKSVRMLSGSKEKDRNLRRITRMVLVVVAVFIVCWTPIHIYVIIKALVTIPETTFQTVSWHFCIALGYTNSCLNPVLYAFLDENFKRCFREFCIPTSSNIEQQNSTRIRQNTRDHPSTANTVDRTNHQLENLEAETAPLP
Method in brief: as §1

[11] = target: T11, Mouse urotensin (mUR2) (Mus musculus, UniProt Q8VIH9); assay: Radioligand binding, mouse urotensin mUR2 membranes, FlashPlate, [125I]-Urotensin II
T11 construct: purchased Perkin Elmer Biosignal
T11 sequence (Q8VIH9 1-385): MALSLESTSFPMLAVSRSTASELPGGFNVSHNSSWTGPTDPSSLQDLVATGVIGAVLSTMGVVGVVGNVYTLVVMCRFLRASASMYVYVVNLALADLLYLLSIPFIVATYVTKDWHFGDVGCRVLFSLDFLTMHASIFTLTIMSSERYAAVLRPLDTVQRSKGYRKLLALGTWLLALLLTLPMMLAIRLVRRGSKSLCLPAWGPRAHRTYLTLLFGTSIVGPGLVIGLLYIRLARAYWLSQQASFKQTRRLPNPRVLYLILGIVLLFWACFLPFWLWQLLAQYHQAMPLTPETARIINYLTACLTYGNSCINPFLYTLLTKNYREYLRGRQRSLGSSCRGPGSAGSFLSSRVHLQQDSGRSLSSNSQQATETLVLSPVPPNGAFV
Method in brief: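 Cloned mouse urotensin (mUR2) receptor membranes from Perkin Elmer Biosignal were immobilized in FlashPlate microplates using a proprietary coating. Each well got 19.5 μl buffer, then 0.5 μl of DMSO, reference ligand, or compound. Adding 5 μl of [125I]-Urotensin II, diluted to 5× final concentration in binding buffer, started binding. Plates were sealed with TopSeal-A and incubated 1 hour at room temperature in the dark. Wells were counted for 30 seconds each on a TopCount after a 60-second delay, and percentage inhibition was calculated.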

[12] = [125I]-Urotensin II, FlashPlate

T1 sequence (Q99705 whole entry): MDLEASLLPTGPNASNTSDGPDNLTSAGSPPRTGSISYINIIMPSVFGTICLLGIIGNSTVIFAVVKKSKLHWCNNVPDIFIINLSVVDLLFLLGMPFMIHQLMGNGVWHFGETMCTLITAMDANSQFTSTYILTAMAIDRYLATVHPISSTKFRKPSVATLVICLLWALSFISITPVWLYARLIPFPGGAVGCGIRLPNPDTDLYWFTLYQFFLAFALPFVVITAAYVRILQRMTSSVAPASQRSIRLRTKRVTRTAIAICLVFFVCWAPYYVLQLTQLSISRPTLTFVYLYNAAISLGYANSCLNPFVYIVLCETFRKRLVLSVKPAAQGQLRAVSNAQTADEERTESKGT

## CSC1OC(COCc2cccc(N)c2)C(O)C(OCc2ccccc2)C1NC(=O)c1c[nH]c2ccccc12 (stereo not shown) [compound 326]
[1]; [125I]-S36057
  A6: inhibition of radioligand binding, human melanin-concentrating hormone (MCH1): − (“−” indicates less than 50% inhibition at 10 μM)
[2]; [125I]-Substance P
  A8: inhibition of radioligand binding, human neurokinin (NK1): + (“+” indicates greater than 50% inhibition at 10 μM)
[3]; [125I]-NDP-αMSH
  A5: inhibition of radioligand binding, human melanocortin (MC5): − (“−” indicates less than 50% inhibition at 10 μM)
[4]; [125I]-NDP-αMSH
  A3: inhibition of radioligand binding, human melanocortin (MC3): − (“−” indicates less than 50% inhibition at 10 μM)
[5]; [125I]-Nociceptin
  A10: inhibition of radioligand binding, human opioid (ORL1): − (“−” indicates less than 50% inhibition at 10 μM)
[6]; [3H]-Diprenorphine
  A2: inhibition of radioligand binding, human κ-opioid (KOP): − (“−” indicates less than 50% inhibition at 10 μM)
[7]; [125I]-PYY
  A9: inhibition of radioligand binding, human neuropeptide Y (NPY-Y1): − (“−” indicates less than 50% inhibition at 10 μM)
[8]; [3H]-Bremazocine
  A1: inhibition of radioligand binding, human δ-opioid (DOP): − (“−” indicates less than 50% inhibition at 10 μM)
[9]; [125I]-NDP-αMSH
  A4: inhibition of radioligand binding, human melanocortin (MC4): − (“−” indicates less than 50% inhibition at 10 μM)
[10]; [3H]-Naloxone
  A7: inhibition of radioligand binding, human μ-opioid (MOP): − (“−” indicates less than 50% inhibition at 10 μM)
[11]; [125I]-Urotensin II
  A11: inhibition of radioligand binding, mouse urotensin (mUR2): − (“−” indicates less than 50% inhibition at 10 μM)

## CO[C@H]1[C@H](O)[C@@H](COCc2ccc(Cl)cc2)OC(OCc2ccc(-c3ccccc3)cc2)[C@@H]1NC(=O)CNC(=N)N (stereo partly shown) [compound 62]
[1]; human MCH1 membranes
  A6 radioligand binding inhibition: + (“+” indicates greater than 50% inhibition at 10 μM)
[2]; human neurokinin NK1 membranes
  A8 radioligand binding inhibition: + (“+” indicates greater than 50% inhibition at 10 μM)
[3]; human melanocortin MC5 membranes
  A5 radioligand binding inhibition: + (“+” indicates greater than 50% inhibition at 10 μM)
[4]; human melanocortin MC3 membranes
  A3 radioligand binding inhibition: + (“+” indicates greater than 50% inhibition at 10 μM)
[5]; human ORL1 membranes
  A10 radioligand binding inhibition: + (“+” indicates greater than 50% inhibition at 10 μM)
[6]; human κ-opioid (KOP) membranes
  A2 radioligand binding inhibition: − (“−” indicates less than 50% inhibition at 10 μM)
[7]; human NPY-Y1 membranes
  A9 radioligand binding inhibition: − (“−” indicates less than 50% inhibition at 10 μM)
[8]; human δ-opioid (DOP) membranes
  A1 radioligand binding inhibition: − (“−” indicates less than 50% inhibition at 10 μM)
[9]; human melanocortin MC4 membranes
  A4 radioligand binding inhibition: + (“+” indicates greater than 50% inhibition at 10 μM)
[10]; human μ-opioid (MOP) membranes
  A7 radioligand binding inhibition: − (“−” indicates less than 50% inhibition at 10 μM)
[11]; mouse urotensin mUR2 membranes
  A11 radioligand binding inhibition: − (“−” indicates less than 50% inhibition at 10 μM)

## COCC1OC(OCCc2ccccc2)C(NC(=O)CCCNC(=N)N)C(OCc2ccccc2)C1O (stereo not shown) [compound 218]
[1]; [125I]-S36057, FlashPlate
  A6: inhibition of radioligand binding: − (“−” indicates less than 50% inhibition at 10 μM)
[2]; [125I]-Substance P, filtration
  A8: inhibition of radioligand binding: + (“+” indicates greater than 50% inhibition at 10 μM)
[3]; [125I]-NDP-αMSH, FlashPlate
  A5: inhibition of radioligand binding: − (“−” indicates less than 50% inhibition at 10 μM)
[4]; [125I]-NDP-αMSH, FlashPlate
  A3: inhibition of radioligand binding: − (“−” indicates less than 50% inhibition at 10 μM)
[5]; [125I]-Nociceptin, FlashPlate
  A10: inhibition of radioligand binding: − (“−” indicates less than 50% inhibition at 10 μM)
[6]; [3H]-Diprenorphine, filtration
  A2: inhibition of radioligand binding: − (“−” indicates less than 50% inhibition at 10 μM)
[7]; [125I]-PYY, FlashPlate
  A9: inhibition of radioligand binding: − (“−” indicates less than 50% inhibition at 10 μM)
[8]; [3H]-Bremazocine, FlashPlate
  A1: inhibition of radioligand binding: − (“−” indicates less than 50% inhibition at 10 μM)
[9]; [125I]-NDP-αMSH, FlashPlate
  A4: inhibition of radioligand binding: − (“−” indicates less than 50% inhibition at 10 μM)
[10]; [3H]-Naloxone, FlashPlate
  A7: inhibition of radioligand binding: − (“−” indicates less than 50% inhibition at 10 μM)
[11]; [12]
  A11: inhibition of radioligand binding: − (“−” indicates less than 50% inhibition at 10 μM)

## N=C(N)NCC(=O)NC1C(OCc2ccc(-c3ccccc3)cc2)OC(COCc2ccc(Cl)cc2)C(O)C1OCc1ccc2ccccc2c1 (stereo not shown) [compound 404]
[1]; [125I]-S36057, human MCH1 membranes
  A6: inhibition of radioligand binding: − (“−” indicates less than 50% inhibition at 10 μM)
[2]; [125I]-Substance P, human NK1 membranes
  A8: inhibition of radioligand binding: + (“+” indicates greater than 50% inhibition at 10 μM)
[3]; [125I]-NDP-αMSH, human MC5 membranes
  A5: inhibition of radioligand binding: + (“+” indicates greater than 50% inhibition at 10 μM)
[4]; [125I]-NDP-αMSH, human MC3 membranes
  A3: inhibition of radioligand binding: + (“+” indicates greater than 50% inhibition at 10 μM)
[5]; [125I]-Nociceptin, human ORL1 membranes
  A10: inhibition of radioligand binding: + (“+” indicates greater than 50% inhibition at 10 μM)
[6]; [3H]-Diprenorphine, human KOP membranes
  A2: inhibition of radioligand binding: − (“−” indicates less than 50% inhibition at 10 μM)
[7]; [125I]-PYY, human NPY-Y1 membranes
  A9: inhibition of radioligand binding: − (“−” indicates less than 50% inhibition at 10 μM)
[8]; [3H]-Bremazocine, human DOP membranes
  A1: inhibition of radioligand binding: − (“−” indicates less than 50% inhibition at 10 μM)
[9]; [125I]-NDP-αMSH, human MC4 membranes
  A4: inhibition of radioligand binding: + (“+” indicates greater than 50% inhibition at 10 μM)
[10]; [3H]-Naloxone, human MOP membranes
  A7: inhibition of radioligand binding: − (“−” indicates less than 50% inhibition at 10 μM)
[11]; [125I]-Urotensin II, mouse mUR2 membranes
  A11: inhibition of radioligand binding: − (“−” indicates less than 50% inhibition at 10 μM)

## COCC1OC(OCCc2ccccc2)C(NC(=O)CCN)C(OCc2ccc(Cl)cc2)C1O (stereo not shown) [compound 221]
[1]; [125I]-S36057, FlashPlate
  A6: inhibition of radioligand binding: − (“−” indicates less than 50% inhibition at 10 μM)
[2]; [125I]-Substance P, filtration
  A8: inhibition of radioligand binding: + (“+” indicates greater than 50% inhibition at 10 μM)
[3]; [125I]-NDP-αMSH, FlashPlate
  A5: inhibition of radioligand binding: + (“+” indicates greater than 50% inhibition at 10 μM)
[4]; [125I]-NDP-αMSH, FlashPlate
  A3: inhibition of radioligand binding: − (“−” indicates less than 50% inhibition at 10 μM)
[5]; [125I]-Nociceptin, FlashPlate
  A10: inhibition of radioligand binding: − (“−” indicates less than 50% inhibition at 10 μM)
[6]; [3H]-Diprenorphine, filtration
  A2: inhibition of radioligand binding: − (“−” indicates less than 50% inhibition at 10 μM)
[7]; [125I]-PYY, FlashPlate
  A9: inhibition of radioligand binding: − (“−” indicates less than 50% inhibition at 10 μM)
[8]; [3H]-Bremazocine, FlashPlate
  A1: inhibition of radioligand binding: − (“−” indicates less than 50% inhibition at 10 μM)
[9]; [125I]-NDP-αMSH, FlashPlate
  A4: inhibition of radioligand binding: − (“−” indicates less than 50% inhibition at 10 μM)
[10]; [3H]-Naloxone, FlashPlate
  A7: inhibition of radioligand binding: − (“−” indicates less than 50% inhibition at 10 μM)
[11]; [12]
  A11: inhibition of radioligand binding: − (“−” indicates less than 50% inhibition at 10 μM)

Source: patent US20080009418A1, “Selective Inhibitors” (Alchemia LTD., priority 2004, published 2008)
